Data taken from article PMC8000889, “Phenolic Compounds from Leaves and Flowers of Hibiscus roseus: Potential Skin Cosmetic Applications of an Under-Investigated Species” (Plants, 2021).
Converted amounts (≈) assume the structure as drawn.

Biological target: T1, collagenase (Collagenase Activity Assay Kit, Sigma-Aldrich)
T1 construct: gene colG
Experiment: FALGPA hydrolysis, absorbance at […] nm
Format: biochemical
Details: substrate FALGPA; 96-well plate, 200 μL, followed for 20 min

SMILES: O=c1c(O)c(-c2ccc(O)c(O)c2)oc2cc(O)cc(O)c12 [quercetin]
- IC50: 5.6 ± 0.7 µg/mL (≈ 18.5 µM)
